Data from PMC7898648, “Synthesis and Evaluation of Non‐Hydrolyzable Phospho‐Lysine Peptide Mimics” (Chemistry (Weinheim an Der Bergstrasse, Germany), 2020).

Tests used:
[1] = NMR titration for pKa determination of model peptides; assay type: physicochemical; conditions: 1 mM peptide in 40 mM KCl (H2O + 10 % D2O); for pKa2 (from 31P chemical shift vs pH, inflection point of sigmoidal fit): pH 2 to 11, 278 K, 600 MHz, 8a/8b: mono-protonated phosphoryl oxygen to di-anion, 8c: complete deprotonation of the phosphoryl oxygens
Method: Next, we aimed to evaluate the charge distribution of peptides 8 a–c at physiological pH. […] An elegant technique for the pK a determination is NMR titration since this non‐invasive analytical technique enables accurate measurements at desired temperatures at a given pH. Our experimental set up was inspired by the NMR titration conducted by Gamcsik et al. on phosphoramidic acid and other phosphoramides. ^[23] Samples were prepared at a 1 mM concentration in 40 mM KCl (water + 10 % deuterium oxide) and kept at low temperature to minimize P−N bond hydrolysis for 8 c. The pH of each sample was adjusted before measurement and checked again afterwards. Proton (^1H), phosphorous (^31P) 1D as well as ^1H‐^31P‐heteronuclear multiple bond […] (HMBC) NMR spectra were recorded from pH 2 to pH 11 on a 600 MHz (^1H frequency) spectrometer at 278 K and subsequently used for calculations of pK a values (Figure 2 A, exemplified for 8 a, see Figure S3 for 8 b). In order to do so, the chemical shift of ^31P was plotted against the pH values and resulting curves fitted with sigmoidal functions wherein pK a values were obtained from the inflection points (Figure 2 B). We further evaluated the data by plotting and fitting of the ^1H chemical shifts – ζ‐protons for phosphonate 8 a and ϵ‐protons for phosphate 8 b and phosphoramidate 8 c (Figure S4).
Figure 2 A. NMR titration experiments of peptide 8 a. Conditions: NMR spectra of a solution containing 1 mM peptide in 40 mM KCl (H2O+10 % D2O) were recorded at distinct pH values on a 600 MHz (^1H frequency) spectrometer at 278 K. Shown are the overlay of 1D‐^31P spectra at different pH values and extracted correlation signals between ϵ‐protons and phosphorous from ^1H,^31P‐HMBC experiments. B. Graphical visualization of ^31P NMR measurements for phosphonate 8 a (red), phosphate 8 b (blue) and phosphoramidate 8 c (black).

[2] = molecular target: T1, alkaline phosphatase (ALP) (Bos taurus, UniProt P19111); experiment: Enzymatic stability against alkaline phosphatase (released inorganic phosphate, EnzCheck kit); assay type: in vitro ADME; conditions: 1 mM substrate, 50 mM Tris, 1 mM MgCl2, 1 mM ZnCl2, pH 8.2, 30 °C, 0.05 U ALP, 2 h; photometric read-out of released Pi at 360 nm (SI: 100 μM, pH 7.8, 90 min); blank without enzyme subtracted
T1 construct: purchased Sigma-Aldrich (aliquots provided by Prof. Fiedler)
T1 sequence (P19111 20-506 limits assumed): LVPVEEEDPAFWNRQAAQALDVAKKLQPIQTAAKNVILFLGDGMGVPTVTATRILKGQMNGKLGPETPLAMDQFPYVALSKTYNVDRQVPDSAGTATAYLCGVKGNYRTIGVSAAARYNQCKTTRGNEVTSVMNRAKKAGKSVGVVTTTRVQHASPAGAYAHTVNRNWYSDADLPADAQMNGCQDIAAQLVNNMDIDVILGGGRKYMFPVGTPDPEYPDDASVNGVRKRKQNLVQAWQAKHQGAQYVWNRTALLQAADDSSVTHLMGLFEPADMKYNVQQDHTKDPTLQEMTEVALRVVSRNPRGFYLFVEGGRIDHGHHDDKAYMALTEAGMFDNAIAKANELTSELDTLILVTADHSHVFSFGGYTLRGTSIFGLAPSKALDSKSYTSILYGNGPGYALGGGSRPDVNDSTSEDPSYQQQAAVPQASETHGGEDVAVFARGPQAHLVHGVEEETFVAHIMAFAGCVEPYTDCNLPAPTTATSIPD
Method: With the three peptides 8 a–c in hand, we tested their enzymatic stability against the promiscuous alkaline phosphatase (ALP). The substrates 8 a–c were tested for stability towards ALP under optimized conditions. Briefly, 1 mM substrate was dissolved in 50 mM Tris, 1 mM MgCl2, 1 mM ZnCl2, pH 8.2, at 30 °C and was incubated with 0.05 U ALP for 2 h. and the amount of released inorganic phosphate (Pi) was determined via photometric read‐out. […] Furthermore, treatment of 8 b with ALP yielded in a Pi release, which indicated susceptibility of the phosphate analogue towards phosphatases.
Treatment of peptides 8a-c with alkaline phosphatase (ALP). […]
enzymatically hydrolyzed substrate, calculated by subtraction of detected inorganic phosphate (Pi) in blank reactions (without enzyme) from the reactions with enzyme ad de d . He r e i n , w e observed dephosphorylation for both peptides 8b and 8c, which indicated susceptibility of the phosphate analogue towards phosphatases. […]
Reactions were run for 90 min in total, UV -absorbance was measured every 10 min. The enzymatic hydrolysis yield [E] was determined by substraction of [BG]w/oBL from […]
UV/Vis spectra and absorbance values were determined either on a V -630 spectrophotometer at r.t. or a V-550 UV/Vis spectrophotometer equipped with an ETC-505T temperature controller at 20 °C (both Jasco, Tokyo, Japan). […]

[3] = potentiometrically detected; cited from earlier work

Row | SMILES | pKa2 (from 31P chemical shift vs pH, inflection point of sigmoidal fit) [1] | stability towards ALP (enzymatic hydrolysis, Pi release) [2] | pKa3 (deprotonation of the amine) ([1]; 31P shift vs pH, 278 K) | pKa for the protonation on nitrogen [3] | pKa for the protonation on one phosphoryl oxygen [3]
1 | CC(=O)N[C@@H](Cc1ccc(O)cc1)C(=O)N[C@@H](CCSCCP(=O)(O)O)C(=O)NCC(N)=O [8a] | 7.08±0.03 |  |  |  | 
2 | CC(=O)N[C@@H](Cc1ccc(O)cc1)C(=O)N[C@@H](CCCCOP(=O)(O)O)C(=O)NCC(N)=O [8b] | 6.54±0.13 | dephosphorylation |  |  | 
3 | CC(=O)N[C@@H](Cc1ccc(O)cc1)C(=O)N[C@@H](CCCCNP(=O)(O)O)C(=O)NCC(N)=O [8c, ^AcTyrpLysGly^CONH2] | 2.88±0.30 |  | 9.64±0.07 |  | 
4 | CCCCNP(=O)(O)O [N‐(n‐butyl)phosphoramidate] |  |  |  | 9.9 | 2.9
